Laboratory results published in US11738022B2, “Methods for inducing pupil dilation” (THE REGENTS OF THE UNIVERSITY OF COLORADO, A BODY CORPORATE, priority 2017, dated 2023).

Experiments:
α receptors (α2:α1) = conditions: affinity ratio; cited from earlier work
pupil = experiment: Pupil dilation measured with Neuroptics pupillometer after α-2 agonist pre-treatment and/or phenylephrine; format: in vivo, human; conditions: for Pupil size, Treated eye / Surgical Work area, Treated eye / Pupil size, Non-treated eye / Surgical Work area, Non-treated eye: photopic conditions (1258.925 lux) after dilation with phenylephrine 10%
Experimental: Dilation medication used was Phenylephrine hydrochloride 10% (Akorn, Inc). Pupillometer used was a Neuroptics DP-2000 Binocular Pupillometer).
Dilation using phenylephrine hydrochloride 10% was conducted in both eyes of the test subject to use as a control against the other compounds being tested.
After this, dilation using phenylephrine hydrochloride 2.5% or phenylephrine hydrochloride 10% was conducted to investigate the effects of the compound on pupil dilation.
Apracionidine 0.5% was administered in the right eye of the test subject three (3) times a day for 4 days. After this, dilation using phenylephrine hydrochloride 10% was conducted to investigate the effects of the compound on pupil dilation.
After this, dilation using phenylephrine hydrochloride 10% was conducted to investigate the effects of the compound on pupil dilation.
A washout period of multiple months was undertaken in between each experiment.
Pupil measurements were obtained using a Neuroptics pupillometer. Parameters were as follows: Scotopic conditions for 1 second, followed by photopic conditions for 4 seconds (1258.925 lux), followed by scotopic conditions for 10 seconds. This allowed for investigation of scotopic pupil size, photopic pupil size, and scotopic pupil size recovery after the light stimulus concluded.
The pupils of the subject's pretreated right eye and untreated control left eye were then measured under both scotopic and photopic conditions for baseline measurements (FIG. 6A). Photopic conditions consisted of a 4 second window where a light was shining in both eyes simultaneously. […]
The experiment was repeated at a higher dosage wherein the subject was administered a second ophthalmic formulation containing 10% phenylephrine to both eyes. 30 minutes after instillation of 10% phenylephrine, the pupils of the subject were then measured under both scotopic and photopic conditions (FIG. 6C). […] Because the area of a circle is dependent on the radius squared (area of a circle=πr^2), the increase in area that is created from a increasing the pupil dilation size is not linear.
The results were then compared.

iris = conditions: men taking tamsulosin, 10 retrospective and prospective studies; cited from earlier work
[1] = after dilation with phenylephrine hydrochloride 10%
[2] = after pre-treatment of right eye only, 3 times a day for 4 days, before phenylephrine
[3] = after pre-treatment of right eye only, 3 times a day for 4 days, before phenylephrine, left eye not treated
[4] = dilation pre and post treatment with α 2 agonist: treated eye vs control measurements of same eye
[5] = non-treated eye dilation compared to treated eye dilation
[6] = right eye pre-treated 3 times a day for 4 days, then phenylephrine 2.5% both eyes (FIG. 6B)
[7] = right eye pre-treated 3 times a day for 4 days, then phenylephrine 2.5% both eyes (FIG. 6B), left eye not pre-treated
[8] = right eye pre-treated 3 times a day for 4 days, then phenylephrine 10% both eyes
[9] = right eye pre-treated 3 times a day for 4 days, then phenylephrine 10% both eyes, left eye not pre-treated

## Brc1c(NC2=NCCN2)ccc2nccnc12 [Brimonidine, brimonidine]
α receptors (α2:α1)
  α2:α1 affinity: 976
pupil; 30 minutes after 2.5% phenylephrine (FIG. 6B)
  dilation speed of pretreated eye vs control eye on return to scotopic conditions: more rapidly
pupil; 30 minutes after 10% phenylephrine (FIG. 6C)
  dilation speed of pretreated eye vs control eye upon removal of the light: more rapidly
pupil; 30 minutes after 10% phenylephrine both eyes (FIG. 6C)
  average increase in dilation size in the pretreated eye compared to the control eye: 36%
pupil; after 4 days pre-treatment, before phenylephrine (FIG. 6A)
  dilation speed of pretreated eye upon return to scotopic conditions: much more slowly
pupil; [1]
  increase of surgical work area compared to the pre-treatment control dilation amount in the same eye: approximately 103%
pupil; [2]
  CH LStim Ave: 69%
  CH RPupil Ave: 67%
  CH RStim Ave: 69%
  CH Right: 67%
  CLAT LStim Ave: 0.17 s
  CLAT RPupil Ave: 0.18 s
  CLAT RStim Ave: 0.17 s
  CLAT Right: 0.18 s
  DELTA LStim Ave: 4.70 mm
  DELTA RPupil Ave: 4.21 mm
  DELTA RStim Ave: 4.70 mm
  DV LStim Ave: 1.02 mm/s
  DV RPupil Ave: 1.00 mm/s
  DV RStim Ave: 1.02 mm/s
  DV Right: 1.00 mm/s
  MCV LStim Ave: 6.57 mm/s
  MCV RPupil Ave: 6.76 mm/s
  MCV RStim Ave: 6.57 mm/s
  Max LStim Ave: 6.86 mm
  Max RStim Ave: 6.86 mm
  Max Right: 6.27 mm
  Min LStim Ave: 2.16 mm
  Min RPupil Ave: 2.06 mm
  Min RStim Ave: 2.16 mm
  Min Right: 2.06 mm
pupil; [3]
  CH LPupil Ave: 70%
  CH Left: 70%
  CLAT LPupil Ave: 0.17 s
  CLAT Left: 0.17 s
  DELTA Left: 5.21 mm
  DV Left: 1.05 mm/s
  MCV Left: 6.38 mm/s
  Max Left: 7.46 mm
  Min Left: 2.25 mm
pupil; [4]
  Pupil size change (%): +42.62%
  Surgical work area change (%): +103.4%
pupil; [5]
  Pupil size change (%): +35.81%
  Surgical work area (%): +84.44%
pupil
  Pupil size, Treated eye: 5.12 mm
  Surgical Work area, Treated eye: 20.58 mm^2
pupil; eye without pre-treatment
  Pupil size, Non-treated eye: 3.77 mm
  Surgical Work area, Non-treated eye: 11.16 mm^2
pupil; photopic conditions, 30 minutes after 2.5% phenylephrine (FIG. 6B)
  dilation of pretreated eye vs control eye: more dilated
pupil; photopic conditions, 30 minutes after 10% phenylephrine (FIG. 6C)
  dilation of pretreated eye vs control eye: much more dilated
pupil; photopic conditions, after 10% phenylephrine (FIG. 6C)
  pupil area, pre-treated eye: 20.59 mm^2
pupil; photopic conditions, after 10% phenylephrine (FIG. 6C), eye without pre-treatment
  pupil area, control eye: 11.16 mm^2
pupil; pre-treated vs control eye, photopic conditions, after 10% phenylephrine
  increase in surgical workspace: ~85%
pupil; [6]
  CH LStim Ave: 64%
  CH RPupil Ave: 61%
  CH RStim Ave: 64%
  CH Right: 61%
  CLAT LStim Ave: 0.19 s
  CLAT RPupil Ave: 0.19 s
  CLAT RStim Ave: 0.19 s
  CLAT Right: 0.19 s
  DELTA LStim Ave: 4.98 mm
  DELTA RPupil Ave: 4.70 mm
  DELTA RStim Ave: 4.98 mm
  DV LStim Ave: 1.36 mm/s
  DV RPupil Ave: 1.39 mm/s
  DV RStim Ave: 1.36 mm/s
  DV Right: 1.39 mm/s
  MCV LStim Ave: 6.06 mm/s
  MCV RPupil Ave: 5.40 mm/s
  MCV RStim Ave: 6.06 mm/s
  Max LStim Ave: 7.73 mm
  Max RStim Ave: 7.73 mm
  Max Right: 7.69 mm
  Min LStim Ave: 2.75 mm
  Min RPupil Ave: 2.99 mm
  Min RStim Ave: 2.75 mm
  Min Right: 2.99 mm
pupil; [7]
  CH LPupil Ave: 68%
  CH Left: 68%
  CLAT LPupil Ave: 0.19 s
  CLAT Left: 0.19 s
  DELTA Left: 5.26 mm
  DV Left: 1.33 mm/s
  MCV Left: 6.71 mm/s
  Max Left: 7.77 mm
  Min Left: 2.51 mm
pupil; [8]
  CH LStim Ave: 52%
  CH RPupil Ave: 46%
  CH RStim Ave: 52%
  CH Right: 46%
  CLAT LStim Ave: 0.22 s
  CLAT RPupil Ave: 0.20 s
  CLAT RStim Ave: 0.22 s
  CLAT Right: 0.20 s
  DELTA LStim Ave: 4.74 mm
  DELTA RPupil Ave: 4.28 mm
  DELTA RStim Ave: 4.74 mm
  DV LStim Ave: 1.06 mm/s
  DV RPupil Ave: 1.09 mm/s
  DV RStim Ave: 1.06 mm/s
  DV Right: 1.09 mm/s
  MCV LStim Ave: 4.22 mm/s
  MCV RPupil Ave: 4.20 mm/s
  MCV RStim Ave: 4.22 mm/s
  Max LStim Ave: 9.18 mm
  Max RStim Ave: 9.18 mm
  Max Right: 9.40 mm
  Min LStim Ave: 4.44 mm
  Min RPupil Ave: 5.12 mm
  Min RStim Ave: 4.44 mm
  Min Right: 5.12 mm
pupil; [9]
  CH LPupil Ave: 58%
  CH Left: 58%
  CLAT LPupil Ave: 0.24 s
  CLAT Left: 0.24 s
  DELTA Left: 5.19 mm
  DV Left: 1.04 mm/s
  MCV Left: 4.25 mm/s
  Max Left: 8.96 mm
  Min Left: 3.77 mm
pupil; scotopic and photopic conditions, after 4 days pre-treatment, before phenylephrine (FIG. 6A)
  dilation of pretreated eye vs control eye: less dilated
pupil; scotopic conditions, 30 minutes after 2.5% phenylephrine (FIG. 6B)
  dilation of pretreated eye vs control eye: equally dilated
pupil; scotopic conditions, 30 minutes after 10% phenylephrine (FIG. 6C)
  dilation of pretreated eye vs control eye: more dilated

## CCOc1ccccc1OCCN[C@H](C)Cc1ccc(OC)c(S(N)(=O)=O)c1 [tamsulosin]
iris
  risk of IFIS: up to 90%

## Nc1cc(Cl)c(N=C2NCCN2)c(Cl)c1 [Apraclonidine, apraclonidine]
α receptors (α2:α1)
  α2:α1 affinity: 150
pupil; [1]
  effect of pre-treatment on dilation: hindered dilation
pupil; [2]
  CH LStim Ave: 62%
  CH RPupil Ave: 61%
  CH RStim Ave: 62%
  CH Right: 61%
  CLAT LStim Ave: 0.21 s
  CLAT RPupil Ave: 0.21 s
  CLAT RStim Ave: 0.21 s
  CLAT Right: 0.21 s
  DELTA LStim Ave: 4.25 mm
  DELTA RPupil Ave: 4.20 mm
  DELTA RStim Ave: 4.25 mm
  DV LStim Ave: 1.08 mm/s
  DV RPupil Ave: 1.19 mm/s
  DV RStim Ave: 1.08 mm/s
  DV Right: 1.19 mm/s
  MCV LStim Ave: 5.93 mm/s
  MCV RPupil Ave: 6.01 mm/s
  MCV RStim Ave: 5.93 mm/s
  Max LStim Ave: 6.87 mm
  Max RStim Ave: 6.87 mm
  Max Right: 6.91 mm
  Min LStim Ave: 2.62 mm
  Min RPupil Ave: 2.71 mm
  Min RStim Ave: 2.62 mm
  Min Right: 2.71 mm
pupil; [3]
  CH LPupil Ave: 63%
  CH Left: 63%
  CLAT LPupil Ave: 0.21 s
  CLAT Left: 0.21 s
  DELTA Left: 4.28 mm
  DV Left: 0.97 mm/s
  MCV Left: 5.85 mm/s
  Max Left: 6.82 mm
  Min Left: 2.54 mm
pupil; [4]
  Pupil size change (%): −17.83%
  Surgical work area change (%): −32.48%
pupil; [5]
  Pupil size change (%): −40.4%
  Surgical work area (%): −64.48%
pupil
  Pupil size, Treated eye: 2.95 mm
  Surgical Work area, Treated eye: 6.831 mm^2
pupil; eye without pre-treatment
  Pupil size, Non-treated eye: 4.95 mm
  Surgical Work area, Non-treated eye: 19.23 mm^2
pupil; [8]
  CH LStim Ave: 54%
  CH RPupil Ave: 62%
  CH RStim Ave: 54%
  CH Right: 62%
  CLAT LStim Ave: 0.22 s
  CLAT RPupil Ave: 0.21 s
  CLAT RStim Ave: 0.22 s
  CLAT Right: 0.21 s
  DELTA LStim Ave: 4.59 mm
  DELTA RPupil Ave: 4.88 mm
  DELTA RStim Ave: 4.59 mm
  DV LStim Ave: 1.21 mm/s
  DV RPupil Ave: 1.18 mm/s
  DV RStim Ave: 1.21 mm/s
  DV Right: 1.18 mm/s
  MCV LStim Ave: 3.80 mm/s
  MCV RPupil Ave: 5.03 mm/s
  MCV RStim Ave: 3.80 mm/s
  Max LStim Ave: 8.54 mm
  Max RStim Ave: 8.54 mm
  Max Right: 7.83 mm
  Min LStim Ave: 3.95 mm
  Min RPupil Ave: 2.95 mm
  Min RStim Ave: 3.95 mm
  Min Right: 2.95 mm
pupil; [9]
  CH LPupil Ave: 46%
  CH Left: 46%
  CLAT LPupil Ave: 0.23 s
  CLAT Left: 0.23 s
  DELTA Left: 4.30 mm
  DV Left: 1.24 mm/s
  MCV Left: 2.58 mm/s
  Max Left: 9.25 mm
  Min Left: 4.95 mm
